Converted amounts (≈) assume the structure as drawn.
Experiments:
physchem [1] = details: buffer, pH 7.4
Description: (§1) GSK_TB: GSK in-house hydrophobicity assay at pH7.4 (logD)

physchem [2] = details: octanol/water
Description: GSK_TB: GSK in-house hydrophobicity assay (logP)

physchem [3] = details: phosphate buffered saline, pH 7.4
[4] = tested on: Mycobacterium tuberculosis H37Rv; experiment: microbe, parasite or virus in culture
Description: GSK_TB: Intracellular minimum inhibitory concentration (MIC) H37Rv assay

[5] = buffer, pH 7.4
Description: as §1

| Structure (SMILES) | logD (physchem [1]) | logP (physchem [2]) | solubility kinetic (physchem [3]) [µM] | MIC90 [4] [µM] | logD7.4 [5] |
| --- | --- | --- | --- | --- | --- |
| O=C(NNC(=O)c1ccc([N+](=O)[O-])o1)c1ccc2ccccc2c1 | 3.02 | 3.48 | 1 (≈ 0.325 µg/mL) | 8.32 (≈ 2.71 µg/mL) | – |
| CCN(CC)c1ccc(-c2nn3c(-c4n[nH]c5c4CCC5)nnc3s2)cc1 | – | 5.78 | 1 (≈ 0.379 µg/mL) | 1.5 (≈ 0.569 µg/mL) | 5.44 |
| COc1ccc(CCNC(=O)c2c(C)nc3ccccn23)cc1 | 3.39 | 3.41 | 348 (≈ 108 µg/mL) | 3.1 (≈ 0.959 µg/mL) | – |
| Cc1cccc(Cn2ccc(NC(=O)c3ccc4c(c3)OCO4)n2)c1 | 5.07 | 5.27 | 80 (≈ 26.8 µg/mL) | 3.7 (≈ 1.24 µg/mL) | – |
| CC(=O)N1CCc2cc3nc(C)cc(C)c3cc21 | 2.64 | 2.65 | 309 (≈ 74.3 µg/mL) | 3.7 (≈ 0.889 µg/mL) | – |
| c1csc(Cc2nn3c(-c4n[nH]c5c4CCC5)nnc3s2)c1 | 3.3 | 3.48 | 196 (≈ 64.4 µg/mL) | 2.4 (≈ 0.788 µg/mL) | – |
| Cc1nc2ccccn2c1C(=O)NCc1ccc2c(c1)OCO2 | 3.02 | 3.02 | 357 (≈ 110 µg/mL) | 2.9 (≈ 0.897 µg/mL) | – |
| FC(F)(F)c1nnc2ccc(Cl)nn12 | 3.11 | 3.1 | 344 (≈ 76.6 µg/mL) | 9.1 (≈ 2.03 µg/mL) | – |
| Brc1c(-c2ccc3c(c2)OCO3)nc2ncccn12 | 3.48 | 3.48 | 219 (≈ 69.7 µg/mL) | 4.7 (≈ 1.5 µg/mL) | – |
| O=C(c1cc2ccccc2o1)N1CCN(Cc2ccc3c(c2)OCO3)CC1 | 5.63 | 5.83 | 171 (≈ 62.3 µg/mL) | 2.7 (≈ 0.984 µg/mL) | – |
| Nc1nc(N)c2c(Sc3ccc4ccccc4c3)cccc2n1 | 4.41 | 4.72 | 32 (≈ 10.2 µg/mL) | 8.71 (≈ 2.77 µg/mL) | – |
| CNc1nc(SC)nc2ccsc12 | 3.3 | 3.3 | 439 (≈ 92.8 µg/mL) | 3.4 (≈ 0.718 µg/mL) | – |
| Brc1cncc(-c2cc(NCCCn3ccnc3)nc(-c3ccccc3)n2)c1 | 5.53 | 5.83 | 15 (≈ 6.53 µg/mL) | 5.19 (≈ 2.26 µg/mL) | – |
| COc1cc(CN2CCC3(C=Cc4ccccc43)CC2)cc2c1OCO2 | 7.03 | 8.25 | 121 (≈ 42.3 µg/mL) | 9.5 (≈ 3.32 µg/mL) | – |
| c1ccc(-c2nnc(Sc3ccnc(N4CCN(c5ccncc5)CC4)n3)n2CCCN2CCOCC2)nc1 | 2.08 | 3.22 | 154 (≈ 83.9 µg/mL) | 6.38 (≈ 3.48 µg/mL) | – |
| CCOC(=O)CC[C@H](NC(=O)c1ccc(S(=O)(=O)Nc2ccc3nc(N)[nH]c(=O)c3c2)cc1)C(=O)OCC | 2.46 | 2.45 | 300 (≈ 164 µg/mL) | 1.5 (≈ 0.818 µg/mL) | – |
| Cl.Cl.O=C(Nc1ccc(NC2=NCCN2)cc1)c1ccc(C(=O)Nc2ccc(NC3=NCCN3)cc2)cc1 | 0.12 | 0.918 | 26 | 1.6 | – |
| COc1ccc(-c2nsc(SCC(=O)N3CCCC3)n2)cc1 | 4.97 | 5.27 | 10 (≈ 3.35 µg/mL) | 1.6 (≈ 0.538 µg/mL) | – |
| COc1cc(C(F)(F)F)nc2ccc(C)c(N)c12 | 4.97 | 5.13 | 446 (≈ 114 µg/mL) | 5.3 (≈ 1.36 µg/mL) | – |
| CCCCc1ccc(C(=O)Nc2nccc3ccccc23)nc1 | 6.65 | 6.94 | 98 (≈ 29.9 µg/mL) | 9.23 (≈ 2.82 µg/mL) | – |

| Structure (SMILES) | logD (physchem [1]) | logP (physchem [2]) | solubility kinetic (physchem [3]) [µM] | MIC90 [4] [µM] | logD7.4 [5] |
| --- | --- | --- | --- | --- | --- |
| Nc1cc(OCc2ccccc2)ccc1Nc1ccccc1 | 6.65 | 6.94 | 1 (≈ 0.29 µg/mL) | 9.44 (≈ 2.74 µg/mL) | – |
| CN(C)S(=O)(=O)c1ccc(C(=O)Nc2nnc(-c3ccc(Cl)s3)o2)cc1 | 2.83 | 4.69 | 177 (≈ 73.1 µg/mL) | 5.82 (≈ 2.4 µg/mL) | – |
| O=C(C=Cc1cccs1)N1CCN(Cc2ccc3c(c2)OCO3)CC1 | 4.97 | 5.23 | 314 (≈ 112 µg/mL) | 0.3 (≈ 0.107 µg/mL) | – |
| CC(C)(C)C(=O)CC1(O)Oc2ccccc2N=C1C=C(O)C(C)(C)C (stereo not given) | 7.49 | 7.84 | 75 (≈ 25.9 µg/mL) | 4.03 (≈ 1.39 µg/mL) | – |
| O=C(CCC1CCCCC1)Nc1cccc(-c2nnc(-c3ccco3)o2)c1 | 6.84 | 7.18 | 1 (≈ 0.365 µg/mL) | 6.1 (≈ 2.23 µg/mL) | – |
| COc1cc(Nc2ccccc2)ccc1NS(=O)(=O)c1c(C)noc1C | 5.53 | 5.78 | 53 (≈ 19.8 µg/mL) | 6.1 (≈ 2.28 µg/mL) | – |
| Cc1nc2ccccn2c1C(=O)NCc1ccccc1 | 3.2 | 3.2 | 403 (≈ 107 µg/mL) | 2 (≈ 0.531 µg/mL) | – |
| COc1cc2ccccc2cc1C(=O)NCc1cccc(-c2ccccc2OC)c1 | 7.21 | 7.58 | 84 (≈ 33.4 µg/mL) | 2.2 (≈ 0.874 µg/mL) | – |
| CCOc1ccc(OCc2ccc(C(=O)NNC(=O)c3ccc([N+](=O)[O-])o3)cc2)cc1 | 4.32 | 4.88 | 1 (≈ 0.425 µg/mL) | 2.5 (≈ 1.06 µg/mL) | – |
| CCC(Sc1nc2ccccc2o1)C(=O)Nc1nccs1 (stereo not given) | 5.44 | 5.78 | 105 (≈ 33.5 µg/mL) | 2.79 (≈ 0.89 µg/mL) | – |
| CC(C)OC(=O)COc1ccc(-c2cnc(N(C)CCc3ccncc3)nc2)cc1 | 5.63 | 5.93 | 182 (≈ 74 µg/mL) | 6.76 (≈ 2.75 µg/mL) | – |
| COc1ccc2nc(C)cc(OCC(=O)NCc3ccccc3)c2c1 | 3.86 | 3.92 | 96 (≈ 32.3 µg/mL) | 1.1 (≈ 0.37 µg/mL) | – |
| C[C@@H](NCCc1nc(-c2cn(C)c3ccccc23)no1)C1CCCCC1.Cl | 6.56 | 8.75 | 202 | 1.15 | – |
| COc1cc(Cc2cnc(N)nc2N)c2cnccc2c1N(C)C | 2.55 | 2.61 | 304 (≈ 98.6 µg/mL) | 2.99 (≈ 0.968 µg/mL) | – |
| CN1CCN(c2cc(-c3ccc(F)cc3)nc(-c3ccncc3)n2)CC1 | 5.07 | 5.73 | 44 (≈ 15.4 µg/mL) | 7.41 (≈ 2.59 µg/mL) | – |
| Cc1ccc2nc(Cl)c(CNCc3cccs3)cc2c1 | 6.84 | 7.23 | 44 (≈ 13.3 µg/mL) | 7.59 (≈ 2.3 µg/mL) | – |
| CCCc1ccc(S(=O)(=O)Nc2ccc(CN3CCN(CC4CC4)CC3)cc2)cc1.O=C(O)C(F)(F)F.O=C(O)C(F)(F)F | 4.69 | 5.54 | 318 | 7.76 | – |
| c1ccc(Cc2nnc(Sc3ccnc(N4CCN(c5ccncc5)CC4)n3)n2CCN2CCOCC2)cc1 | 2.18 | 3.12 | 186 (≈ 101 µg/mL) | 7.85 (≈ 4.27 µg/mL) | – |
| CC1=Nc2ccccc2CN1CC(O)c1cc(Br)cs1 (stereo not given) | 2.46 | 4.12 | 563 (≈ 198 µg/mL) | 7.85 (≈ 2.76 µg/mL) | – |
| O=C(COc1ccccc1)N1CCN(c2cnc3ccccc3n2)CC1 | 4.69 | 4.72 | 173 (≈ 60.3 µg/mL) | 3.09 (≈ 1.08 µg/mL) | – |

| Structure (SMILES) | logD (physchem [1]) | logP (physchem [2]) | solubility kinetic (physchem [3]) [µM] | MIC90 [4] [µM] | logD7.4 [5] |
| --- | --- | --- | --- | --- | --- |
| C=CCNc1nc(SC)nc2ccccc12 | 4.97 | 5.13 | 279 (≈ 64.5 µg/mL) | 3.2 (≈ 0.74 µg/mL) | – |
| Cc1cc(OCC(=O)Nc2ccccc2)c2cc(Br)ccc2n1 | 5.25 | 5.44 | 16 (≈ 5.94 µg/mL) | 3.3 (≈ 1.23 µg/mL) | – |
| FC(F)(F)c1cc(SCc2ccccc2)nc(-c2ccccn2)n1 | 7.12 | 7.54 | 1 (≈ 0.347 µg/mL) | 3.3 (≈ 1.15 µg/mL) | – |
| COc1ccccc1OCCCCn1c(C2CC2)nc2ccccc21 | 5.63 | 5.83 | 167 (≈ 56.2 µg/mL) | 3.4 (≈ 1.14 µg/mL) | – |
| O=C(C=Cc1ccco1)N1CCN(Cc2ccc3c(c2)OCO3)CC1 | 4.51 | 4.72 | 186 (≈ 63.3 µg/mL) | 4.6 (≈ 1.57 µg/mL) | – |
| CCc1ccc(S(=O)(=O)Nc2cc(CN3CCN(CCC(C)C)CC3)ccc2C)cc1.O=C(O)C(F)(F)F.O=C(O)C(F)(F)F | 6.28 | 7.74 | 313 | 4.68 | – |
| c1csc(-c2nnc(Sc3ccnc(N4CCN(c5ccncc5)CC4)n3)n2CCCN2CCOCC2)c1 | 2.08 | 3.12 | 185 (≈ 102 µg/mL) | 3.43 (≈ 1.88 µg/mL) | – |
| Cc1ccc2nc(C)c(-c3ccn(Cc4ccccc4)n3)n2c1 | 5.16 | 5.54 | 120 (≈ 36.3 µg/mL) | 5 (≈ 1.51 µg/mL) | – |
| Cc1nn(Cc2ccccc2)c(Cl)c1C(=O)NC1CCCCCC1 | 6.75 | 7.04 | 28 (≈ 9.68 µg/mL) | 5.2 (≈ 1.8 µg/mL) | – |
| O=C(/C=C/c1ccccc1)N1CCN(Cc2cccc(OCc3ccccc3)c2)CC1 | 7.21 | 7.54 | 61 (≈ 25.2 µg/mL) | 8.22 (≈ 3.39 µg/mL) | – |
| O=C(Nc1ccccc1-c1nc(C2CCC2)cs1)OCC1CCNCC1.O=C(O)C(F)(F)F | 4.41 | 8.15 | 115 | 8.71 | – |
| CCc1nc2ccccc2n1CC(O)COc1cc(C)ccc1Cl (stereo not given) | 5.35 | 5.63 | 1 (≈ 0.345 µg/mL) | 8.81 (≈ 3.04 µg/mL) | – |
| CC(=O)NCCn1c(Sc2ccnc(N3CCN(c4ccncc4)CC3)n2)nnc1-c1ccccc1 | 1.06 | 1.82 | 135 (≈ 67.7 µg/mL) | 8.91 (≈ 4.47 µg/mL) | – |
| Cc1nc2ccccn2c1C(=O)NCc1cccs1 | 2.92 | 2.93 | 365 (≈ 99 µg/mL) | 9.02 (≈ 2.45 µg/mL) | – |
| CN1CCN(c2cc(-c3ccncc3)nc(-c3ccccc3)n2)CC1 | 4.88 | 5.54 | 379 (≈ 126 µg/mL) | 9.02 (≈ 2.99 µg/mL) | – |
| N=C(Nc1nc(-c2ccccn2)cc2ccccc12)c1cccc(Cl)c1 | 8.24 | 8.64 | 1 (≈ 0.359 µg/mL) | 4.5 (≈ 1.61 µg/mL) | – |
| c1ccc(-c2nc(NC3CCCCC3)cc(C3CC3)n2)nc1 | 6.09 | 6.74 | 302 (≈ 88.9 µg/mL) | 7.08 (≈ 2.08 µg/mL) | – |
| c1ccc(-c2csc(Nc3nc4cc5c(cc4s3)OCO5)n2)nc1 | 5.07 | 5.06 | 1 (≈ 0.354 µg/mL) | 2.7 (≈ 0.957 µg/mL) | – |
| COc1ccc2sc(Nc3nc(-c4ccccn4)cs3)nc2c1 | 5.35 | 5.34 | 22 (≈ 7.49 µg/mL) | 8.2 (≈ 2.79 µg/mL) | – |
| Fc1ccc2nc(Nc3nc(-c4ccccn4)cs3)sc2c1 | 5.53 | 5.54 | 28.5 (≈ 9.36 µg/mL) | 2.3 (≈ 0.755 µg/mL) | – |

Reference: ChEMBL document CHEMBL2095176, “GSK Tuberculosis Screening Data”
